Measurements reported in patent US10865415B2, “Prevention, diagnosis and treatment of cancer overexpressing GPR160” (Shanghai Institute of Materia Medica, Chinese Academy of …, priority 2015, dated 2020).
Entries after “also recorded” stand apart in the source; their conditions may differ.

Legend:
Type in all cases: cell-based, human
PC-3 cells [1] = assay: Colony formation, crystal violet staining; conditions: 12 to 20 days culture, versus ShGPR160-S10 control group (100%)
Description: (§1) Based on the above results, PC-3 and LNCaP cells were infected with ShGPR160-S6, ShGPR160-S7, and ShGPR160-S10 for 48 hours, and inoculated into […] at 1000/2 ml/well. After 12 to 20 days of continuous culture, the cells were stained with 0.1% crystal violet solution, dried, and the number of colonies per well counted. The group infected with ShGPR160-S10 virus was set as a 100% control.

LNCaP cells [2] = assay: Colony formation, crystal violet staining; conditions: 12 to 20 days culture, versus ShGPR160-S10 control group (100%)
Description: as §1

GPR160 gene = assay: Quantitative RT-PCR of GPR160 expression after lentiviral shRNA infection; conditions: compared with control virus ShGPR160-S10
Source text: The total RNA of each cultured cell was extracted with Trizol reagent (Invitrogen), Oligo-dT was used as primer, and reverse transcriptase was transcribed to generate cDNA. The template and primers were mixed with SYBR detection reagents (TaKaRa) and detected by 7300 Quantitative PCR instrument. The reference gene encodes the β-actin gene ACTB (NC 000007.14).
The lentivirus shRNA expression plasmid (Cat. No. TL312662) was purchased from OriGene, in which the target gene sequence targeted by the GPR160 siRNA is shown in SEQ ID NO: 1, and the sense strand sequence of the siRNA is shown in SEQ ID NO.: 6, SEQ ID NO: 7, SEQ ID NO.: 8, SEQ ID NO: 9, respectively. The sense strand sequence of the non-specific control siRNA is shown in SEQ ID NO: 10.
The siRNA expression plasmid pGFP-C-shGPR160 and the control plasmid pGFP-C-Scramble were extracted with Qiagene plasmid extraction kit and mixed with the packaging plasmid, and then 293T cells that had been inoculated for 24 hours were transfected with MegaTran (OriGene), and the virus supernatant was collected after 72 hours. After centrifugation at 15000 rpm for 15 minutes to remove cell debris, a quarter volume of Lentivirus Concentration (Biomiga) was added for concentration, and was stored at −80° C. in aliquots. Viruses produced by transfection of pGFP-C-shGPR160 plasmid containing the sequences SEQ ID NO: 6 to SEQ ID NO: 9 were labeled as ShGPR160-S6, ShGPR160-S7, ShGPR160-S8, and ShGPR160-S9, respectively. The virus produced by transfection of the non-specific control plasmid was designated ShGPR160-S10.
PC-3 and LNCaP cells were infected with the prepared lentiviruses at multiplicity of infection (MOI) of 40 and 10, respectively. After 72 hours, the total RNA of the infected cells was extracted, and the expression of GPR160 in the cells was detected by quantitative RT-PCR.

PC-3 cells [3] = assay: CCK-8 proliferation assay; conditions: infected 48 hours, cultured 1, 3 and 5 days, Scramble group = 100%
Description: (§2) To examine the effect of GPR160-specific SiRNAs on proliferation of prostate cancer cells, PC-3 and LNCaP cells, after infected by virus for 48 hours, were plated in 96-well plates at a density of 5000/100/μl/well and 2500/100 μl/well, respectively, and cultured for 1, 3, and 5 days respectively, 10 μl/well of CCK-8 detection reagent (TaKaRa) was added 4 hours before the end of culture, and light absorption at 450 nm was detected at the end of incubation. The reference wavelength was 650 nm. The reading of Scramble group was set to 100%.

LNCaP cells [4] = assay: CCK-8 proliferation assay; conditions: infected 48 hours, cultured 1, 3 and 5 days, Scramble group = 100%
Description: as §2

[5] = LNCaP cells, MOI 10, 72 hours after infection
[6] = PC-3 cells, MOI 40, 72 hours after infection

Substance | number of clones formed (PC-3 cells [1]) | number of clones formed (LNCaP cells [2]) | inhibitory efficiency on GPR160 expression (GPR160 gene; [5]) [%] | inhibitory efficiency on GPR160 expression (GPR160 gene; [6]) [%] | effect on proliferation (PC-3 cells [3]) | effect on proliferation (LNCaP cells [4])
ShGPR160-S6: Lentivirus from pGFP-C-shGPR160 plasmid; siRNA sense strand SEQ ID NO.: 6, 5′-TTGGTACAGGCTATCAGGATAACTTCCTA-3′ | significantly less | significantly less | 86.2 | 87.8 | significantly inhibited | significantly inhibited
ShGPR160-S7: Lentivirus from pGFP-C-shGPR160 plasmid; siRNA sense strand SEQ ID NO.: 7, 5′-TTCTATGTCAGCATTCAGAGTTACTGGCT-3′ | significantly less | significantly less | 91.7 | 85.0 | significantly inhibited | significantly inhibited
ShGPR160-S8: Lentivirus from pGFP-C-shGPR160 plasmid; siRNA sense strand SEQ ID NO.: 8, 5′-CCATCTACCAAAGCCTGAAGGCACAGAAT-3′ | – | – | 32.8 | 41.7 | – | no inhibitory effect; also recorded: no significant effect
ShGPR160-S9: Lentivirus from pGFP-C-shGPR160 plasmid; siRNA sense strand SEQ ID NO.: 9, 5′-CCATTTGTCAACTGGAAGTGCTGCTTCAT-3′ | – | – | 56.2 | 41.8 | – | –
